Reference: US20100260694A1, “Methionine Sulfoxide Peptide, Compositions And Methods Of Use” (priority 2009, published 2010)

Experiments:
[1] = test system: Msr; assay: Msr expression in NHEK by RT-PCR and gel electrophoresis; format: cell-based, human; details: for level of Msr compared to a housekeeping gene: keratinocytes, RT-PCR
Description: The first material tried was oxidized methionine (the sulfoxide form). […] However, in an experiment performed in February of 2004, an oxidized polypeptide gave very good results. Investigations continued along those lines.
(§1) NHEK cells were incubated overnight in culture medium (control) and in culture medium containing oxidized peptide and in culture medium containing unoxidized peptide (control). Concentrations (mg/mL) of the oxidized peptide included 0.01, 0.1 and 0.25. The unoxidized peptide (i.e. Met-enkephalin) was tested only at 0.25 mg/mL. After incubation, mRNA was extracted from the cells and cDNA was prepared by reverse transcription polymerase chain reaction (RT-PCR). Samples were probed for Msr via gel electrophoresis using β-microglobulin as a control.

[2] = test system: Msr; assay: Msr in NHEK, confirmation by Western blotting; format: cell-based, human; details: overnight incubation
Description: as §1

[3] = molecular target: T1, elastase (Sus scrofa, UniProt P00772); assay: Elastase activity assay (Molecular Probes) adapted for inhibition with α1-antitrypsin; format: biochemical
T1 construct: purchased Molecular Probes
T1 sequence (P00772 27-266): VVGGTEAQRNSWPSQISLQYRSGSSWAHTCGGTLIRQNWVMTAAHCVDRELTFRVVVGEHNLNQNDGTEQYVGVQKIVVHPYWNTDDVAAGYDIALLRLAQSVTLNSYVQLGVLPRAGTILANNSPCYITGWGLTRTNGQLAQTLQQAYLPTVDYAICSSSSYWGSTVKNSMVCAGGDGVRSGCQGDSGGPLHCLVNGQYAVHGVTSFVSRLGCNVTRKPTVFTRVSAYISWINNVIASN
Description: (§2) Methods: An elastase assay from Molecular Probes was utilized and adapted for inhibition with α1-antitrypsin. Fluorescence was measured by excitation at 485 nm and emission at 525 nm in a CytoFluor plate reader.
This was achieved by incubating 0.1 mg/ml elastin and 0.05 units/ml elastase with α1-antitrypsin in a dose-dependent manner (2.5-50 ug/sample). The results are shown in FIG. 8, where con=control; E=elastase; I=inhibitor (included with assay); AT=α1-antitrypsin.
This was done by oxidizing 10 μg of α1-antitrypsin with hydrogen peroxide.
(§3) This was achieved by incubating the A1AT that had been oxidized in 30 mM H2O2 with 0.7 mg/ml msrA and 10 mM DTT for 2 hours. […] We start with 100% elastase. As before, α1-antitrypsin (AT) removes about 90% of the elastase activity (bar labeled Elastase+AT).

[4] = test system: Epidermal Full Thickness 200 (EFT 200) living skin models; assay: Sunburn Cell production in UVB-irradiated EFT 200 living skin models; format: cell-based; details: 1 mg/ml for 48 hours, then 100 mJ/cm^2 UVB
Description: Methods: Epidermal Full Thickness 200 (EFT 200) living skin models were obtained from MatTek and incubated for 48 hours in media with or without 1 mg/ml of the MetO-enkephalin. The oxidized peptide can be stored at room temperature. Because the peptide is already oxidized, it has relative low reactivity in storage. Two ml of media were added beneath the living skin models, which were situated on a transwell membrane to allow the maintenance of an air/aqueous interface. After 48 hours, the living skin models were exposed to 100 mJ/cm^2 UVB, re-fed, and incubated overnight. The next day, the samples were fixed in 10% formalin and sent to Paragon Bioservices for histological sectioning and H&E staining. Five contiguous microscopic fields for each section were evaluated for the presence of SBC by counting the number of SBC and uninvolved cells and expressing SBC as a percentage of the total. Sunburn Cells are characterized by eosinophilic staining of the cytoplasm and pyknotic nuclei (condensed chromatin).

[5] = UV spectrum of the peptide; format: physicochemical; details: at 290 nm
[6] = test system: keratinocytes; assay: Cytotoxicity in keratinocytes; format: cell-based; details: various concentrations, epidermal cells / keratinocytes
[7] = molecular target: oxidized α1-antitrypsin (Homo sapiens, UniProt P01009); assay: Reversal of α1-antitrypsin oxidation by msrA, read out in elastase activity assay; format: biochemical; details: oxidized A1AT incubated with 0.7 mg/mL MsrA and 10 mM DTT for 2 hours
oxidized α1-antitrypsin, sequence (P01009 25-418): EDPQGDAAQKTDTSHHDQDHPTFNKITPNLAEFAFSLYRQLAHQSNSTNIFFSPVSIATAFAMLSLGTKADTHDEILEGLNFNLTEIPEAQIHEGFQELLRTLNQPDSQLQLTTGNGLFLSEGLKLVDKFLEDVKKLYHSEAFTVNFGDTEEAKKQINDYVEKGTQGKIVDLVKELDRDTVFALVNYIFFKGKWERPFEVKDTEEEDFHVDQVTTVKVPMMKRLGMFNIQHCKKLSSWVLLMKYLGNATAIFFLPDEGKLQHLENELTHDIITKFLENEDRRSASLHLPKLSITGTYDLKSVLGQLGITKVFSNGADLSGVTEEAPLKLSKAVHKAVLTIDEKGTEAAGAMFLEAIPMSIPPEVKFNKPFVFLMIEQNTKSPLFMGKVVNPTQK
Description: as §2, §3

CSCC[C@H](NC(=O)[C@@H](Cc1ccccc1)NC(=O)CNC(=O)CNC(=O)[C@H](N)Cc1ccc(O)cc1)C(=O)O [Met-enkephalin, Met- enkephalin, reference compound]
increase in Msr expression ([1]; NHEK, overnight incubation, 0.25 mg/mL): no significant increase
Msr mRNA in treated cells by Western blotting [2]: no significant increases of Msr mRNA

C[S+]([O-])CC[C@H](N)C(=O)O (some centres unmarked) [oxidized methionine, methionine sulfoxide]
level of Msr compared to a housekeeping gene [1]: not significantly raised

ATox: α1-antitrypsin oxidized in 30 mM H2O2
elastase activity with oxidized α1-antitrypsin ([3]; bar Elastase+ATox, FIG. 10, oxidized in 30 mM H2O2): all of the elastase activity returns

Oxidized bovine serum albumin: Oxidized bovine serum albumin, a comparatively large protein
level of Msr compared to a housekeeping gene [1]: without success

Tyr - Gly - Gly - Phe - MetO [MetO-enkephalin]
average increase in Msr expression ([1]; NHEK, overnight incubation, oxidized peptide concentration 0.01%): 18%
average increase in Msr expression ([1]; NHEK, overnight incubation, oxidized peptide concentration 0.1%): 28%
average increase in Msr expression ([1]; NHEK, overnight incubation, oxidized peptide concentration 0.25%): 25.4%
Msr mRNA in treated cells by Western blotting [2]: increases of Msr mRNA
average percent reduction in SBC from both trials [4]: 31.1%
extinction coefficient [5]: 145.5
k-value of absorbance [5]: 0.24
cytotoxicity [6]: low cytotoxicity

α1-antitrypsin: serin protease inhibitor made in the liver, inhibits a wide variety of proteases
elastase inhibition after oxidation with H2O2 ([3]; 10 μg α1-antitrypsin oxidized with 30 mM H2O2, 3 hours, ambient temperature): almost all elastase inhibition provided by α1-antitrypsin, is lost
elastase activity (fluorescence), dose dependence ([3]; 0.1 mg/ml elastin, 0.05 units/ml elastase, α1-antitrypsin 2.5-50 ug/sample): Fluorescence decreases with increasing concentration of α1-antitrypsin
elastase activity removed ([3]; bar Elastase+AT, FIG. 10): about 90%

B1: MsrA: form of Msr involved in the reduction of the S-stereoisomer (protein, UniProt Q9UJ68 24-235, looked up)
Mitochondrial peptide …: GNSASNIVSPQEALPGRKEQTPVAAKHHVNGNRTVEPFPEGTQMAVFGMGCFWGAERKFWVLKGVYSTQVGFAGGYTSNPTYKEVCSEKTGHAEVVRVVYQPEHMSFEELLKVFWENHDPTQGMRQGNDHGTQYRSAIYPTSAKQMEAALSSKENYQKVLSEHGFGPITTDIREGQTFYYAEDYHQQYLSKNPNGYCGLGGTGVSCPVGIKK
re-inhibition of elastase activity [7]: over 59%
